# Biological target: T1, AGO2-MID domain (Homo sapiens, UniProt Q9UKV8)
# T1 construct: mixed with an equal amount of a 5 μg/mL AGO2-MID domain solution
# Assay: Biacore competition experiment of nucleotide (monomer) for the AGO2-MID domain (Test Examples 7 and 8)
# Format: binding
# Details: Test Example 7; 2.5 μg/mL AGO2-MID domain solution containing the monomer at 100 μM; read-out: inhibition rate (%) (100 μM AGO2-MID domain solutions)
# Experimental: HBS-EP+ 10× was diluted to 10-fold with pure water, and DTT was added thereto to give a final concentration of 2 mM, followed by filtration through a filter to prepare an HBS-EP+ 2 mM DTT aqueous solution. To this solution, dimethyl sulfoxide (DMSO) was added to give a final concentration of 1%, whereby a running buffer was prepared.
# A monomer solution dissolved in DMSO or distilled water was diluted to 200 μM, 40 μM, 8 μM, and 1.6 μM/(2% DMSO, HBS-EP+, 2 mM DTT), and each of the diluted solutions was mixed with an equal amount of a 5 μg/mL AGO2-MID domain solution diluted with the HBS-EP+2 mM DTT solution, whereby 2.5 μg/mL AGO2-MID domain solutions containing the monomer at 100 μM, 20 μM, 4 μM, and 0.8 μM, respectively, were prepared as the HBS-EP+, 2 mM DTT, 1% DMSO solution.
# A competition experiment by the siRNA was performed using a chip immobilized dT(16)-Biotin oligo thereon in the same manner as in Test Example 6. The flow rate is set to 30 μL/minute throughout the experiment, and one cycle is performed as follows: binding for 60 seconds, dissociation for 5 seconds, and regeneration 1 M NaCl for 5 seconds.
# In order to stabilize the machine, the first 10 cycles are performed by adding only HBS-EP+, and thereafter, the measurement is performed for each monomer in the order of HBS-EP+(BLANK), a 2.5 μg/mL AGO2-MID domain solution (CONTROL), and 2.5 μg/mL AGO2-MID domain solutions (Sample) containing the monomer at 100 μM, 20 μM, 4 μM, and 0.8 μM, respectively, and a 2.5 μg/mL AGO2-MID domain solution (CONTROL). In the analysis, the binding level of the graph obtained by subtracting the graph for blank immobilization from the graph for the immobilized cell is used, and the residual binding ratio (%) is calculated according to ([Sample]−[BLANK])/([CONTROL]−[BLANK])×100, and the inhibition ratio (%) is calculated according to 100−(residual binding ratio).
# In Table 36, the inhibition ratios (%) of 8-Br-dA (Compound I-1) and 5-fluoro-2′-deoxyuridine monophosphate (Compound I-4), and for comparison thereof, the inhibition ratios (%) of adenosine monophosphate (AMP) and uridine monophosphate (UMP) are shown.
row,Structure (SMILES),inhibition at 100 µM
1,"Nc1ncnc2c1ncn2[C@@H]1O[C@H](COP(=O)(O)O)[C@@H](O)[C@H]1O [AMP, adenosine monophosphate, reference compound]",27.1%
2,"O=c1ccn([C@@H]2O[C@H](COP(=O)(O)O)[C@@H](O)[C@H]2O)c(=O)[nH]1 [UMP, uridine monophosphate, reference compound]",35.9%
3,"Nc1ncnc2c1nc(Br)n2[C@H]1C[C@H](O)[C@@H](COP(=O)(O)O)O1 [compound I-1, 8-bromo-2′-deoxyadenosine monophosphate]",68.6%
4,"O=c1[nH]c(=O)n([C@H]2C[C@H](O)[C@@H](COP(=O)(O)O)O2)cc1F [compound I-4, 5-fluoro-2′-deoxyuridine monophosphate]",42.7%

# Same assay, conditions: Test Example 8; 2.5 μg/mL AGO2-MID domain solution containing the monomer at 100 μM; read-out: inhibition rate (%) (100 μM AGO2-MID domain solutions)
row,Structure (SMILES),inhibition at 100 µM
1,"COc1cc2c(=O)[nH]c(=O)n([C@@H]3O[C@H](COP(=O)(O)O)[C@@H](O)[C@H]3O)c2cc1OC [compound I-5, ((2R,3S,4R,5R)-5-(6,7-dimethoxy-2,4-dioxo-3,4-dihydroquinazolin-1(2H)-yl)-3,4-dihydroxytetrahydrofuran-2-yl)methyl phosphate]",87.4%
2,"O=c1[nH]c(=O)n([C@@H]2O[C@H](COP(=O)(O)O)[C@@H](O)[C@H]2O)c2ccc(Cl)cc12 [compound I-6, ((2R,3S,4R,5R)-5-(6-Chloro-2,4-dioxo-3,4-dihydroquinazolin-1(2H)-yl)-3,4-dihydroxytetrahydrofuran-2-yl)methyl phosphate]",70%
3,"O=c1[nH]c(=O)n([C@@H]2O[C@H](COP(=O)(O)O)[C@@H](O)[C@H]2O)c2cc(Cl)ccc12 [compound I-7, ((2R,3S,4R,5R)-5-(7-Chloro-2,4-dioxo-3,4-dihydroquinazolin-1(2H)-yl)-3,4-dihydroxytetrahydrofuran-2-yl)methyl phosphate]",71.7%
4,"O=c1[nH]c(=O)n([C@@H]2O[C@H](COP(=O)(O)O)[C@@H](O)[C@H]2O)c2cccc(Cl)c12 [compound I-8, ((2R,3S,4R,5R)-5-(5-Chloro-2,4-dioxo-3,4-dihydroquinazolin-1(2H)-yl)-3,4-dihydroxytetrahydrofuran-2-yl)methyl phosphate]",77.1%
5,"O=c1[nH]c(=O)n([C@@H]2O[C@H](COP(=O)(O)O)[C@@H](O)[C@H]2O)c2ccsc12 [compound I-9, (2R,3S,4R,5R)-5-(2,4-Dioxo-3,4-dihydrothieno[3,2-d]pyrimidin-1(2H)-yl)-3,4-dihydroxytetrahydrofuran-2-yl)methyl phosphate]",70.9%
6,"O=P(O)(O)OC[C@H]1O[C@@H](n2cnc3c(/C=C/c4ccccc4)ncnc32)[C@H](O)[C@@H]1O [compound I-10, ((2R,3S,4R,5R)-3,4-dihydroxy-5-(6-((E)-styryl)-9H-purin-9-yl)tetrahydrofuran-2-yl)methyl phosphate]",73.5%
7,"CN(C)c1ncnc2c1nc(Br)n2[C@@H]1O[C@H](COP(=O)(O)O)[C@@H](O)[C@H]1O [compound I-11, ((2R,3S,4R,5R)-6-(8-bromo-6-(dimethylamino)-9H-purin-9-yl)-3,4-dihydroxytetrahydrofuran-2-yl)methyl phosphate]",60.9%
8,"CN(C)c1ncnc2c1nc(C#N)n2[C@@H]1O[C@H](COP(=O)(O)O)[C@@H](O)[C@H]1O [compound I-12, ((2R,3S,4R,5R)-6-(8-cyano-6-(dimethylamino)-9H-purin-9-yl)-3,4-dihydroxytetrahydrofuran-2-yl)methyl phosphate]",74.2%
9,"O=c1cc(I)n([C@@H]2O[C@H](COP(=O)(O)O)[C@@H](O)[C@H]2O)c(=O)[nH]1 [compound I-13, ((2R,3S,4R,5R)-5-(6-Iodo-2,4-dioxo-3,4-dihydropyrimidin-1(2H)-yl)-3,4-dihydroxytetrahydrofuran-2-yl)methyl phosphate]",63.4%
10,"O=c1[nH]c(=O)n([C@@H]2O[C@H](COP(=O)(O)O)[C@@H](O)[C@H]2O)cc1-c1ccccn1 [compound I-14, ((2R,3S,4R,5R)-5-(2,4-Dioxo-5-(pyridin-2-yl)-3,4-dihydropyrimidin-1 (2H)-yl)-3,4-dihydroxytetrahydrofuran-2-yl)methyl phosphate]",63.3%
11,"O=c1[nH]c(=O)n([C@@H]2O[C@H](COP(=O)(O)O)[C@@H](O)[C@H]2O)cc1-c1ncco1 [compound I-15, ((2R,3S,4R,5R)-3,4-Dihydroxy-5-(5-(oxazol-2-yl)-2,4-dioxo-3,4-dihydropyrimidin-1(2H)-yl)tetrahydrofuran-2-yl)methyl phosphate]",73%
12,"COc1ccc(-c2cn([C@@H]3O[C@H](COP(=O)(O)O)[C@@H](O)[C@H]3O)c(=O)[nH]c2=O)cc1 [compound I-16, ((2R,3S,4R,5R)-3,4-Dihydroxy-5-(5-(4-methoxyphenyl)-2,4-dioxo-3,4-dihydropyrimidin-1(2H)-yl)tetrahydrofuran-2-yl)methyl phosphate]",65.6%
13,"O=P(O)(O)OC[C@H]1O[C@@H](n2c(Br)nc3c(/C=C/c4ccccc4)ncnc32)[C@H](O)[C@@H]1O [compound I-18, ((2R,3S,4R,5R)-5-(8-Bromo-6-((E)-styryl)-9H-purin-9-yl)-3,4-dihydroxytetrahydrofuran-2-yl)methyl phosphate]",97.8%
14,"Cc1sc2c(c1C)c(=O)[nH]c(=O)n2[C@@H]1O[C@H](COP(=O)(O)O)[C@@H](O)[C@H]1O [compound I-19, ((2R,3S,4R,5R)-5-(5,6-Dimethyl-2,4-dioxo-3,4-dihydrothieno [2,3-d]pyrimidin-1 (2H)-yl)-3,4-dihydroxytetrahydrofuran-2-yl)methyl phosphate]",89.7%
15,"CC(C)c1cccc(-c2ncnc3c2ncn3[C@@H]2O[C@H](COP(=O)(O)O)[C@@H](O)[C@H]2O)c1 [compound I-20, ((2R,3S,4R,5R)-3,4-dihydroxy-5-(6-(3-isopropylphenyl)-9H-purin-9-yl)tetrahydrofuran-2-yl)methyl phosphate]",76.9%
16,"O=P(O)(O)OC[C@H]1O[C@@H](n2cnc3c(-c4ccc5ccccc5c4)ncnc32)[C@H](O)[C@@H]1O [compound I-21, ((2R,3S,4R,5R)-3,4-Dihydroxy-5-(6-(naphthalen-2-yl)-9H-purin-9-yl)tetrahydrofuran-2-yl)methyl phosphate]",78.2%
17,"O=Cc1cccc(-c2ncnc3c2ncn3[C@@H]2O[C@H](COP(=O)(O)O)[C@@H](O)[C@H]2O)c1 [compound I-22, ((2R,3S,4R,5R)-3,4-Dihydroxy-5-(6-(3-formylphenyl)-9H-purin-9-yl)tetrahydrofuran-2-yl)methyl phosphate]",91.6%

# Same assay, conditions: conclusion from Test Example 7
row,Structure (SMILES),affinity for AGO2 (inhibition ratio) compared with adenosine monophosphate or uridine monophosphate
1,O=c1[nH]c(=O)n([C@H]2C[C@H](O)[C@@H](COP(=O)(O)O)O2)cc1F [5-fluoro-2′-deoxyuridine monophosphate],higher affinity for AGO2
2,"Nc1ncnc2c1nc(Br)n2[C@H]1C[C@H](O)[C@@H](COP(=O)(O)O)O1 [compound I-1, 8-bromo-2′-deoxyadenosine monophosphate]",higher affinity for AGO2

# Same assay, conditions: read-out: inhibition rate (%) (100 μM AGO2-MID domain solutions)
row,Structure (SMILES),inhibition at 100 µM
1,"N#Cc1cc(=O)[nH]c(=O)n1[C@@H]1O[C@H](COP(=O)(O)O)[C@@H](O)[C@H]1O [compound I-17, ((2R,3S,4R,5R)-5-(6-Cyano-2,4-dioxo-3,4-dihydropyrimidin-1(2H)-yl)-3,4-dihydroxytetrahydrofuran-2-yl)methyl phosphate]",86%
